# Entries after “also recorded” stand apart in the source; their conditions may differ.
# Columns and labels:
# [1] = system: P. falciparum parasite line, 3D7; assay: microbe, parasite or virus in culture; type: cell-based, Plasmodium falciparum; conditions: P. falciparum 3D7 blood-stages, 0.1% initial parasitemia
# Experimental: FIG. 9 exemplifies a dose-dependent effect of CR-mimetic compounds on human P. falciparum blood-stages. Synchronized cultures were set at 0.1% initial parasitemia, treated with the various compounds and analysed by flow cytometry after SYBR Green labelling of parasite DNA at 72 hours or 96 hours post-treatment. Data (mean±sem) was […] to the untreated control on each experiment (3-5 independent experiments/compound). IC50 values were determined by GraphPad. Prism using non-linear regression variable slope (normalized) analysis. […] Data for rsv and SRT1720 was collected at 72 hours post-treatment, and 96 hours for all the other compounds.
# Example 7. Dose-dependent effect of CR-mimetic compounds on human P. falciparum blood-stages. Synchronized cultures of the P. falciparum parasite line, 3D7, were set at 0.1% initial parasitemia, treated with the various compounds and analysed by flow cytometry after SYBR Green labelling of parasite DNA at 72 hours or 96 hours post-treatment. […] Data for rsv and SRT1720 were collected at 72 hours post-treatment, and 96 hours for all the other compounds.
# P. falciparum 3D7 was continuously cultured in human erythrocytes at 4% hematocrit in RPMI 1640 supplemented with 0.5% Albumax II (Invitrogen), […] Hypoxanthine (Sigma) and 20 μg/ml Gentamicin (Invitrogen). Cultures were maintained at 37° C. in an atmosphere of 5% O2, 5% CO2, 90% N2, and synchronized by consecutive treatments of 5% Sorbitol (Sigma), for dose-response analysis, serial dilutions of the compounds were added to synchronized ring-stages of P. falciparum in 96-well plates. Initial parasitemia was set to 0.1% and hematocrit 2%. Parasite replication and reinvasion were assessed at the indicated time by flow cytometry based on fluorescent labelling of P. falciparum DNA. The SYBR Green I (Invitrogen) stained samples were analysed on a CyFlow® SL Blue or Accuri® BD flow cytometer and the data evaluated using FlowJo software (TreeStar) to determine the percentage of infected erythrocytes. IC50 values were calculated using GraphPad Prism.
# [2] = system: P. berghei sporozoites; assay: Relative parasitemia after P. berghei sporozoite (liver-stage) infection of mice; type: in vivo, C57BL/6 mice; conditions: 72 h.p.i., vs control
# Experimental: Relative parasitemia in C57BL/6 mice that were infected with freshly dissected P. berghei sporozoites, and treated with salicylate or metformin, or maintained under control conditions. Salicylate (300 mg/Kg) was administered by i.p. injection once daily, starting one hour before infection, Metformin (500 mg/Kg) was provided in the drinking water for one week prior and during infection, (≥10 mice/group; each dot represents, one mouse). ***p<0.001; ****p<0.0001.
# Parasitemia was determined by flow cytometry analysis (BD FACSCAlibur200 or BD LSRFortessa®) of one drop of tail blood in PBS from C57BL/6 mice that were infected with GFP-expressing P. berghei parasites, and maintained on either AL or CR diets. Analysis on FlowJo® followed. The number of acquired total events ranged from 100-200 thousand. […] The GFP-expressing parasites were detected in the FITC channel. False GFP positive ceils (erythrocyte's auto-fluorescence) were eliminated by plotting FITC against PE.
# Relative parasitemia in C57BL/6 mice at 72 hours post infection (h.p.i) with freshly dissected P. berghei sporozoites, was determined by flow cytometry analysis (as described in Example 1) for mice treated with either salicylate or metformin, or maintained under control, untreated conditions. […]
# [3] = system: P. berghei sporozoites; assay: Survival of P. berghei sporozoite-infected mice; type: in vivo, C57BL/6 mice; conditions: 15-day period
# Source text: FIG. 6 exemplifies that treatment with AMPK agonists protects P. berghei infected mice from severe malaria, leading to improved survival, C57BL/6 mice were infected and treated as in FIG. 5 (≥10 mice/group; p<0.05).
# Example 4. Improved survival of parasite-infected mice treated with AMPK agonists. To determine the effect of the AMPK activators, salicylate and metformin, on animal survival over a 15-day period following parasite infection, C57BL/6 mice were infected by i.d. injection of 5×10^3 P. berghei sporozoites. Salicylate (300 mg/Kg, Sigma No. 71945) was administered by i.p. injection once daily, starting one hour before infection. Metformin (500 mg/Kg. Sigma No D150959) was provided in the drinking water for one week prior to, and during, infection.
# [4] = system: P. berghei wild-type (wt) and complemented Δkin (Δkin+kin) parasites; assay: In vitro schizont maturation, merozoites per segmented schizont (wild-type and complemented Δkin); type: cell-based, Plasmodium berghei; conditions: 625 μM, 24 h in vitro, medium with 25% fetal bovine serum
# Experimental: (§1) FIG. 7A exemplifies microscopy analysis and quantification of the number of merozoites per segmented schizont in P. berghei wild-type (wt), Δkin and complemented Δkin (Δkin+kin) parasites. Blood-stage parasites were allowed to mature for 24 hours into schizonts in vitro with medium supplemented with AL and CR sera. KIN is the AMPK homologue in Plasmodium parasites. ****p<0.0001.
# (§2) Example 5. The AMPK homologue, KIN, regulates the CR effect in Plasmodium parasites. P. berghei parasite wild-type respond to CR by decreasing the number of daughter merozoites on each cycle. […] The CR effect phenotype can be rescued by reintroducing the kin gene into Δkin parasite line.
# (§3) P. berghei blood-stage parasites can be maintained in vitro for only one developmental cycle (20-24 h), in which ring forms develop into mature schizonts, without bursting. Infected blood was obtained from in vivo infections containing mainly ring-stage forms at 1-3% parasitemia. Parasites were cultured in RPMI1640 medium containing 25 mM HEPES, 0.05 mg/ml Gentamicin or Penicillin/Streptomycin (all Gibco/Invitrogen), in 96-well plates. […] Parasite development and the number of merozoites per schizont were then assessed using light microscopy and image (http://rsbweb.nih.gov/ij/). Only mature schizont (segmenters) with clearly separated merozoites were scored.
# [5] = system: P. berghei Δkin parasites; assay: In vitro schizont maturation, merozoites per segmented schizont (Δkin); type: cell-based, Plasmodium berghei; conditions: 24 h in vitro, medium with 25% fetal bovine serum
# Experimental: as §1, §2, §3
# [6] = system: AMPKα (pAMPKα T172); assay: Western blot of AMPK phosphorylation in liver homogenates; type: in vivo, C57BL/6 mice; conditions: non-infected mice, 1 hr after injection, vs vehicle
# Source text: Western blot analysis of liver homogenates from non-infected mice in AL and DR diets (top panel), and non-infected mice 1 hr after injection of salicylate or vehicle (bottom panel). Lane numbers 1-3 correlate to liver homogenates from individual mice. Representative blot probing with anti-phospho AMPKα (pAMPKα^T172), and -actin antibodies.
# Example 2. […] Western blot analysis of AMPK phosphorylation in liver homogenates from non-infected C57BL/6 mice in AL end DR diets, and non-infected mice one hour after injection of salicylate or vehicle. Livers were homogenized in ice-cold lysis buffer (50 mM HEPES, 150 mM NaCl, 10 mM NaF, 1 mM Sodium pyrophosphate, 0.5 mM EDTA, 1 mM DTT, 1% triton, 1 mM Na3VO4, 250 mM Sucrose, protease inhibitor cocktail and phosphatase inhibitors). Total protein content in each homogenate was measured by Bradford Assay (Bio-Rad), according to manufacturer's instructions. 50 μg of total liver lysates were resolved on either 8% SDS-PAGE or Any kD™ Mini-PROTEAN® precast gels (Bio-Rad) and transferred to a nitrocellulose membrane using standard wet transfer with 1× Tris-Glycine buffer containing 20% methanol for 2 hr at 100 V constant or were transferred using iBlot® gel Transfer Stacks (ThermoFisher). […]
# pAMPK was detected using rabbit anti-phospho-AMPKα T172 (mAb 40H9.1:1000, Cell Signaling Technology) (incubation for overnight at 4° C). […]
# [7] = 300 mg/Kg i.p. once daily, starting one hour before infection
smiles,measurement,setting,value
N#Cc1c(O)c2c(-c3ccc(-c4ccccc4O)cc3)csc2[nH]c1=O [A769662],IC50,[1]; 96 hours post-treatment,71 µM
O=C(Nc1ccccc1-c1cn2c(CN3CCNCC3)csc2n1)c1cnc2ccccc2n1 [SRT1720],IC50,[1]; 72 hours post-treatment,0.786 µM
CN(C)C(=N)N=C(N)N [metformin],IC50,"[1]; Plasmodium falciparum, 96 hours post-treatment",868 µM
same,Relative parasitemia (liver-stage infection),[2]; 500 mg/Kg in drinking water for one week prior and during infection,reduction of P. berghei liver-stage infection
same,Survival rate,[3]; 500 mg/Kg in drinking water for one week prior to and during infection,significant increases in the survival rates
Oc1ccc(C=Cc2cc(O)cc(O)c2)cc1 [resveratrol],IC50,"[1]; Plasmodium falciparum, 72 hours post-treatment",32 µM
O=C(O)c1ccccc1O [salicylate],IC50,[1]; 96 hours post-treatment,1300 µM
same,Relative parasitemia (liver-stage infection),[2]; [7],reduction of P. berghei liver-stage infection
same,Survival rate,[3]; [7],significant increases in the survival rates
same,Parasite replication (merozoites per schizont),[4],reduced parasite replication; also recorded: reduce replication
same,Parasite replication (merozoites per schizont),[5],fail to respond
same,AMPK phosphorylation (pAMPKα T172) in liver,[6],activation of AMPK
